From patent US20060116407A1, “Amide derivatives” (priority 2004, published 2006)

Columns and labels:
HER-2 = molecular target: T1, HER-2 (Homo sapiens, UniProt P04626); assay: Inhibition of HER-2 phosphorylation in Calu-3 tumor cell line; type: cell-based; settings: Calu-3 cells, compound 1 μM, 16 h, pY 1248 in HER-2, percentage of DMSO control; for inhibition at 1 µM: read-out: Percent inhibition of HER2-phosphorylation (compound concentration 1 μM)
T1 construct: endogenous in cells; host or cells: Calu-3 (ATCC HTB-55)
Method: Inhibition of HER-2 Phosphorylation in Calu-3 Tumor Cell Line
2×10^5 Calu-3 (ATTC HTB-55) cells per well were plated in a 12-well plate. After 4 days cells were starved for 16 h in Dulbecco's Modified Eagle Medium (DMEM)/0.5% Fetal Calf Serum (FCS)/1% Glutamine. During this 16 h period cells were incubated with a solution of the test compound in dimethylsulfoxide(DMSO), so that the final concentration of the compound is 1 μM and the final volume of DMSO is 0.5%. Afterwards cells were lysed in lyses buffer containing 1% Triton®X-100, 10% Glycerol, 1 mM Ethylene glycol-bis(2-aminoethylether)-N,N,N′,N′-tetraacetic acid (EGTA), 1.5 mM MgCl2, 150 mM NaCl, 50 mM 4-(2-hydroxyethyl)-1-piperazineethanesulfonic acid (HEPES) buffer pH 7.5, 1 mM Phenylmethylsulfonyl fluoride (PMSF), 10 ∥g/mL Aprotinin and […] Orthovanadate. Cell lysates were analyzed on a Sodium Dodecyl Sulfate Polyacrylamide Gel Electrophoresis (SDS PAGE) and after transfer to a nitrocellulose membrane detected with an antibody specifically recognizing the pY 1248 in HER-2. Inhibition of HER-2 phosphorylation is calculated as percentage of the control, which is treated with DMSO only.

HEK293 cells = assay: Viability assay of HEK293 cells (CellTiter-Glo); type: cell-based; settings: Homo sapiens, 168 h, 7 days, 3 μM to 0.00015 μM, luminescence
Method: Viability Assay of HEK293 Cells
A viability assay was performed using the CellTiter-Glo™ Luminescent Cell Viability Assay (see Promega Corporation's Technical Publication No. 288, pp. 1-11 [revised 2.04] which is hereby incorporated by reference in its entirety). This assay is a homogeneous method of determining the number of viable cells in culture based on quantitation of the ATP present, which signals the presence of metabolically active cells. The assay is designed for use with multiwell formats, making it ideal for automated high-throughput screening (HTS), cell proliferation and cytotoxicity assays. The homogeneous assay procedure involves adding a single reagent (containing luciferase, luciferan substrate, and buffer) directly to cells cultured in serum-supplemented medium. Cell washing, removal of medium and multiple pipetting steps are not required. The system detects as few as 15 cells/well in a 384-well format in 10 minutes after adding reagent and mixing.
The homogeneous “add-mix-measure” format results in cell lysis and generation of a luminescent signal proportional to the amount of ATP present. The amount of ATP is directly proportional to the number of cells present in culture. The above-referenced assay generates a “glow-type” luminescent signal, produced by the luciferase reaction, which has a half-life generally greater than five hours, depending on cell type and medium used. The extended half-life eliminates the need to use reagent injectors and provides flexibility for continuous or batch mode processing of multiple plates. The unique homogeneous format avoids errors that may be introduced by other ATP measurement methods that require multiple steps.
HEK293 cells (human embryonic kidney cell line transformed by Adenovirus 5 fragments, ATCC-No. CRL 1573) were cultivated in Dulbecco's Modified Eagle Medium (DMEM) (1×) liquid (high glucose) (which includes L-Alanyl-L-Glutamine [a stabilized a form of L-Glutamine], 4500 mg/L glucose, and 110 mg/L sodium pyruvate) from Invitrogen Corporation (Invitrogen Catalog Number 31966-021 [now 10569-010] which is hereby incorporated by reference in its entirety), 5% Fetal Calf Serum (FCS, Sigma Cat-No. F4135 (FBS) which is hereby incorporated by reference in its entirety), and 100 Units/ml penicillin/100 μg/ml streptomycin(=Pen/Strep from Invitrogen Cat. No. 15140 which is hereby incorporated by reference in its entirety). For the assay the cells were seeded in 384 well plates, 5000 cells per well, in the same medium. The next day the test compounds were added in various concentrations ranging from 3 μM to 0.00015 μM (10 concentrations, 1:3 diluted). After 7 days the above viability assay was performed in accordance with the following steps: • Step 1: The cell-plate was equilibrated to room temperature for approximately 30 minutes and than the assay reagent was added. • Step 2: The contents were carefully mixed for 15 minutes to induce cell lysis. • Step 3: After 45 minutes the luminescent signal was measured in Victor 2, (scanning multiwell spectrophotometer, Wallac). Details: 1st Day: • Medium: Dulbecco's Modified Eagle Medium (DMEM) (1×) liquid (high glucose) (which includes L-Alanyl-L-Glutamine [a stabilized a form/source of L-Glutamine], 4500 mg/L glucose, and 110 mg/L sodium pyruvate) from Invitrogen Corporation (Invitrogen Catalog Number 31966-021 [now 10569-010]), 5% Fetal Calf Serum (FCS, Sigma Cat-No. F4135 (FBS)), and Pen/Strep (Invitrogen Cat. No. 15140). • HEK293 (ATCC-No. CRL 1573): 5000 cells in 60 μl per well of 384 well plate. (Greiner 781098, white plates) • Incubate 24 h at 37° C., 5% CO2 2nd Day: Induction (Substance Testing):
In general the dilution steeps are 1:3 a) Add 8 μl of 10 mM stock solution of compound to 72 μl DMSO b) dilute 9×1:3 (always 30 μl to 60 μl DMSO) in this DMSO dilution row (results in 10 wells with concentrations from 1000 μM to 0.06 μM) c) dilute each concentration 1: 4.8 (10 μl compound dilution to 38 μl medium) […]

T1 sequence (P04626 23-1255): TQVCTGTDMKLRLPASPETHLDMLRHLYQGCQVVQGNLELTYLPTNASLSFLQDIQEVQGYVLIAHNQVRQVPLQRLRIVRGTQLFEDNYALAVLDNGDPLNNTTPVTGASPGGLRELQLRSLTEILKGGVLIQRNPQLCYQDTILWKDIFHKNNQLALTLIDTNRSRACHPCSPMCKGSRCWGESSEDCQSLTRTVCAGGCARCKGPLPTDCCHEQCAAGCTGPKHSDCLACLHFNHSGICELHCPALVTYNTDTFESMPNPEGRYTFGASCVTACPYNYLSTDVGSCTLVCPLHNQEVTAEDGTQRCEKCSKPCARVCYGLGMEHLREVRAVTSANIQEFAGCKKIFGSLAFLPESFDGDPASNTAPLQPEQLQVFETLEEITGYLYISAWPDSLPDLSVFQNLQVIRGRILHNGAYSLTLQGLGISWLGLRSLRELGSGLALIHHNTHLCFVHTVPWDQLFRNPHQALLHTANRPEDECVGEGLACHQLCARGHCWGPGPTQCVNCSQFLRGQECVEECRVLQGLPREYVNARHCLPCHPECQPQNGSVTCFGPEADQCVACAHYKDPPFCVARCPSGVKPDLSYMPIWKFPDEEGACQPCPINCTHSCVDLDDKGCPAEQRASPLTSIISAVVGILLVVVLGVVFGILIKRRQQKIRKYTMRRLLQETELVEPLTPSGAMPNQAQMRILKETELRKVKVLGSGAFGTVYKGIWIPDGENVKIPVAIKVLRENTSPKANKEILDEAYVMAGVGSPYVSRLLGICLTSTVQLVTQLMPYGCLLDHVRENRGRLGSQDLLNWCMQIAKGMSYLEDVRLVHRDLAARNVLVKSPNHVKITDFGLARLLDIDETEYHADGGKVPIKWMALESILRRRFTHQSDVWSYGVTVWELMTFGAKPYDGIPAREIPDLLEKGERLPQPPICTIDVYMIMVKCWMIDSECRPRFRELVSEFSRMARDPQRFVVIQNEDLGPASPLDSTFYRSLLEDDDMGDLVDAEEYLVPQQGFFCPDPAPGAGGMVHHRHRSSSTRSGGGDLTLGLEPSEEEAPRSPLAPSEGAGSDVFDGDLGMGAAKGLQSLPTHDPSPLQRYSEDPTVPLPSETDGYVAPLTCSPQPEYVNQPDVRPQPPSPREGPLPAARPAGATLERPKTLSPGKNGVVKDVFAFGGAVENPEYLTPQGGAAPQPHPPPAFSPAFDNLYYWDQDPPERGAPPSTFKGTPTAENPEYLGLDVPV

inhibition at 1 µM (HER-2) | Percent inhibition of HER2-phosphorylation (compound concentration 1 μM) (HER-2) | SMILES | IC50 (HEK293 cells)
52% |  | FC(F)(F)c1ccc(C=Cc2nc(COc3ccc(CCCCn4ccnn4)cc3)co2)cc1 [reference compound, 1-[4-(4-{2-[2-(4-Trifluoromethyl-phenyl)-vinyl]-oxazol-4-ylmethoxy}-phenyl)-butyl]-1H-[1,2,3]triazole, reference compound] | 
70 to 80% |  | COc1ccc(NC(=O)c2coc(COc3ccc(CCCCn4ccnn4)cc3)n2)cc1 [Example 37, 2-[4-(4-[1,2,3]Triazol-1-yl-butyl)-phenoxymethyl]-oxazole-4-carboxylic acid (4-methoxy-phenyl)-amide] | 
 | 75% | O=C(Nc1ccc(OC(F)(F)F)cc1)c1coc(COc2ccc(CCCCn3ccnn3)cc2)n1 [Example 10, 2-[4-(4-[1,2,3]Triazol-1-yl-butyl)-phenoxymethyl]-oxazole-4-carboxylic acid (4-trifluoro-methoxy-phenyl)-amide] | 
> 80% |  | O=C(Nc1ccc(C(F)(F)F)cc1)c1csc(COc2ccc(CCCCn3ccnn3)cc2)n1 [Example 41, 2-[4-(4-[1,2,3]Triazol-1-yl-butyl)-phenoxymethyl]-thiazole-4-carboxylic acid (4-trifluoromethyl-phenyl)-amide] | 5 to 500 nM
 | 69% | O=C(Nc1ccc(SC(F)(F)F)cc1)c1coc(COc2ccc(CCCCn3ccnn3)cc2)n1 [Example 11, 2-[4-(4-[1,2,3]Triazol-1-yl-butyl)-phenoxymethyl]-oxazole-4-carboxylic acid (4-trifluoro-methylsulfanyl-phenyl)-amide] | 
55 to 70% |  | O=C(Nc1ccc2c(c1)OC(F)(F)O2)c1coc(COc2ccc(CCCCn3ccnn3)cc2)n1 [Example 9, 2-[4-(4-[1,2,3]Triazol-1-yl-butyl)-phenoxymethyl]-oxazole-4-carboxylic acid (2,2-difluoro-benzo [1,3]dioxol-5-yl)-amide] | 116 nM
70 to 80% |  | O=C(Nc1ccc(S(F)(F)(F)(F)F)cc1)c1nc(COc2ccc(CCCCn3ccnn3)cc2)cs1 [Example 40, 4-[4-(4-[1,2,3]Triazol-1-yl-butyl)-phenoxymethyl]-thiazole-2-carboxylic acid (4-pentafluorosulfanyl-phenyl)-amide] | 5 to 500 nM
70 to 80% |  | Cc1ccc(NC(=O)c2coc(COc3ccc(CCCCn4ccnn4)cc3)n2)cc1F [Example 36, 2-[4-(4-[1,2,3]Triazol-1-yl-butyl)-phenoxymethyl]-oxazole-4-carboxylic acid (3-fluoro-4-methyl-phenyl)-amide] | 5 to 500 nM
70 to 80% |  | O=C(Nc1nc(COc2ccc(CCCCn3ccnn3)cc2)cs1)c1ccc(Cl)cc1 [Example 52-5, 4-Chloro-N-{4-[4-(4-[1,2,3]triazol-1-yl-butyl)-phenoxymethyl]-thiazol-2-yl}-benzamide] | 5 to 500 nM
> 80% |  | CC(C)(C)c1ccc(C(=O)Nc2nc(COc3ccc(CCCCn4ccnn4)cc3)cs2)cc1 [Example 52-21, 4-tert-Butyl-N-{4-[4-(4-[1,2,3]triazol-1-yl-butyl)-phenoxymethyl]-thiazol-2-yl}-benzamide] | 5 to 500 nM
55 to 70% |  | CN(C(=O)c1coc(COc2ccc(CCCCn3ccnn3)cc2)n1)c1ccc(Cl)cc1 [Example 2, 2-[4-(4-[1,2,3]Triazol-1-yl-butyl)-phenoxymethyl]-oxazole-4-carboxylic acid (4-chloro-phenyl)-methyl-amide] | 
72% |  | O=C(Nc1ccc(Cl)cc1F)c1coc(COc2ccc(CCCCn3ccnn3)cc2)n1 [Example 14, 2-[4-(4-[1,2,3]Triazol-1-yl-butyl)-phenoxymethyl]-oxazole-4-carboxylic acid (4-chloro-2-fluoro-phenyl)-amide] | 500 to 3000 nM
55 to 70% |  | O=C(Nc1ccc(F)cc1)c1coc(COc2ccc(CCCCn3ccnn3)cc2)n1 [Example 31, 2-[4-(4-[1,2,3]Triazol-1-yl-butyl)-phenoxymethyl]-oxazole-4-carboxylic acid (4-fluoro-phenyl)-amide] | 500 to 3000 nM
 |  | O=C(Nc1nc(COc2ccc(CCCCn3ccnn3)cc2)cs1)c1ccc([N+](=O)[O-])cc1 [Example 52-1, 4-Nitro-N-{4-[4-(4-[1,2,3]triazol-1-yl-butyl)-phenoxymethyl]-thiazol-2-yl}-benzamide] | 5 to 500 nM
 |  | Cc1cc(C(=O)Nc2nc(COc3ccc(CCCCn4ccnn4)cc3)cs2)ccc1F [Example 52-26, 4-Fluoro-3-methyl-N-{4-[4-(4-[1,2,3]triazol-1-yl-butyl)-phenoxymethyl]-thiazol-2-yl}-benzamide] | 5 to 500 nM
 |  | O=C(Nc1nc(COc2ccc(CCCCn3ccnn3)cc2)cs1)c1ccc(OC(F)F)cc1 [Example 52-22, 4-Difluoromethoxy-N-{4-[4-(4-[1,2,3]triazol-1-yl-butyl)-phenoxymethyl]-thiazol-2-yl}-benzamide] | 5 to 500 nM
 |  | O=C(Nc1nc(COc2ccc(CCCCn3ccnn3)cc2)cs1)c1ccc(Cl)c(F)c1 [Example 52-6, 4-Chloro-3-fluoro-N-{4-[4-(4-[1,2,3]triazol-1-yl-butyl)-phenoxymethyl]-thiazol-2-yl}-benzamide] | 5 to 500 nM
 |  | O=C(Nc1ccc(F)c(Cl)c1)c1coc(COc2ccc(CCCCn3ccnn3)cc2)n1 [Example 12, 2-[4-(4-[1,2,3]Triazol-1-yl-butyl)-phenoxymethyl]-oxazole-4-carboxylic acid (3-chloro-4-fluoro-phenyl)-amide] | 5 to 500 nM
55 to 70% |  | O=C(Nc1ccc(OC(F)F)cc1)c1coc(COc2ccc(CCCCn3ccnn3)cc2)n1 [Example 22, 2-[4-(4-[1,2,3]Triazol-1-yl-butyl)-phenoxymethyl]-oxazole-4-carboxylic acid (4-difluoromethoxy-phenyl)-amide] | 
 |  | O=C(Nc1ccc(Cl)cc1)c1csc(COc2ccc(CCCCn3ccnn3)cc2)n1 [Example 42, 2-[4-(4-[1,2,3]Triazol-1-yl-butyl)-phenoxymethyl]-thiazole-4-carboxylic acid (4-chloro-phenyl)-amide] | 5 to 500 nM
 |  | Cc1c(F)cccc1NC(=O)c1coc(COc2ccc(CCCCn3ccnn3)cc2)n1 [Example 20, 2-[4-(4-[1,2,3]Triazol-1-yl-butyl)-phenoxymethyl]-oxazole-4-carboxylic acid (3-fluoro-2-methyl-phenyl)-amide] | 500 to 3000 nM
